Results as given in ChEMBL document CHEMBL1629662, “Antimicrobial activity of prulifloxacin tested against a worldwide collection of gastroenteritis-producing pathogens, including those causing traveler's diarrhea” (2009).

What follows are molecules tested on Yersinia pseudotuberculosis (assay: Antibacterial activity against Yersinia pseudotuberculosis assessed as percent resistant isolates by broth microdilution method).
Assay type: functional
With `CC1(C)S[C@@H]2[C@H](NC(=O)[C@H](N)c3ccccc3)C(=O)N2[C@H]1C(=O)O` [AMPICILLIN] the Activity was 91.3%. With `O=C(O)c1cn(C2CC2)c2cc(N3CCNCC3)c(F)cc2c1=O` [CIPROFLOXACIN] the Activity was 0%. `C[C@H]1c2cccc(O)c2C(=O)C2=C(O)[C@]3(O)C(=O)C(C(N)=O)=C(O)[C@@H](N(C)C)[C@@H]3[C@@H](O)[C@@H]21.O` [DOXYCYCLINE] showed an Activity of 4.3%. `CCn1cc(C(=O)O)c(=O)c2ccc(C)nc21` [NALIDIXIC ACID] showed an Activity of 6.5%. For `CC1Sc2c(C(=O)O)c(=O)c3cc(F)c(N4CCNCC4)cc3n21` (stereo not given) [ULIFLOXACIN], the Activity was 0%.
